For 24 compounds, IC50 results are on record in patent US20230116972A1, “CD38 MODULATORS AND METHODS OF USE THEREOF” (Cytokinetics, Inc., priority 2021, published 2023).

Experiment [1] has as its target T1, endogenous CD38 in HL60 cells (Homo sapiens, UniProt P28907).
T1 construct: endogenous in cells; host or cells: HL60 (leukemic cells, treated with all-trans retinoic acid)
T1 sequence (P28907 1-300): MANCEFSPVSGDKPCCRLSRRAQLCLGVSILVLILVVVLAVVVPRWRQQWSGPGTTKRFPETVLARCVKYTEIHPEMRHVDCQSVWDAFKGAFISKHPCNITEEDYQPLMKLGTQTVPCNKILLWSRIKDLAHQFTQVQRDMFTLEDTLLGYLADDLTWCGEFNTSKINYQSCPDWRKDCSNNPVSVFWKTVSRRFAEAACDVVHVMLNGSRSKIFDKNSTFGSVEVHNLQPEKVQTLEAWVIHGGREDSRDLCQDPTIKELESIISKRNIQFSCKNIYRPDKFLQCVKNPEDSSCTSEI
Put plainly: cellular CD38 assay in HL60 cells (cellular NAD levels). Conditions: all-trans retinoic acid, 24 hours, read-out: hCD38 HL60 ATRA NAD Cell Diaphorase IC50. The class given is cell-based. The gist of the method:
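HL60 cells (20000/well) were treated with compound in DMSO for 24 h. Cellular NAD was then measured by an enzymatic cycling mix (alcohol dehydrogenase, diaphorase, 40 uM resazurin, 10 uM FMN, 3% ethanol, Triton X-100, pH 8.4).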

Another experiment has as its target T2, mouse CD38 (Mus musculus, UniProt P56528).
T2 sequence (P56528 1-304): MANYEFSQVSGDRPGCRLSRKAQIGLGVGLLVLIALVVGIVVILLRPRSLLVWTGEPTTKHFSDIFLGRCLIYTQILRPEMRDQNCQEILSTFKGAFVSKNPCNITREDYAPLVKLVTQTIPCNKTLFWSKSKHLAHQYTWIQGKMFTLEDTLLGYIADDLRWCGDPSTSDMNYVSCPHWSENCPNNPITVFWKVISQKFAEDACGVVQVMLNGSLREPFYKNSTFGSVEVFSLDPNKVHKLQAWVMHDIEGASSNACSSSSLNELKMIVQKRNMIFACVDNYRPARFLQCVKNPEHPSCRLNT
Put plainly: mouse recombinant CD38 enzyme assay (hydrolysis of NAD+). The class given is biochemical. Conditions: read-out: mCD38 BioChem IC50. An outline of the steps: (§1)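 Cell-free recombinant enzyme, NAD+ substrate, 60 min at RT. Stop/detect: ethanol/ADH plus semicarbazide and a CD38 inhibitor (15 min), then NaOH, then resazurin/diaphorase (15 min). Remaining NAD+ read as resorufin fluorescence, Ex/Em 540/590 nm. Inhibition fitted from dose responses.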

A further experiment deals with T3, human CD38 (Homo sapiens, UniProt P28907).
T3 sequence (P28907 1-300): T1 sequence (P28907 1-300)
Put plainly: human recombinant CD38 enzyme assay (hydrolysis of NAD+). The class given is biochemical. To be noted: human recombinant CD38, 0.4 nM enzyme, 62.5 μM NAD+; read-out: hCD38 BioChem IC50. The gist of the method: as §1

Structures are written as SMILES.

A word on the IC50: it is the midpoint of a concentration-inhibition curve. Regarding `Cn1cncc1-c1ccnc(C(=O)N[C@H]2CC[C@H](C)CC2)n1` [Compound 149, 4-(1-methyl-1H-imidazol-5-yl)-N-((1r,4r)-4-methylcyclohexyl)pyrimidine-2-carboxamide], the IC50 turned out to be 1380 nM in experiment [1], 13 nM at mouse CD38 and 43 nM at human CD38.

As to `Cn1cncc1-c1cccc(C(=O)N[C@H]2CC[C@H](C(F)F)CC2)n1` [Compound 77, N-(4-(difluoromethyl)cyclohexyl)-6-(1-methyl-1H-imidazol-5-yl)picolinamide], the IC50 is 3360 nM in experiment [1], 32 nM on mouse CD38 and 131 nM on human CD38.

Take `O=C(N[C@H]1CC[C@H](OC(F)(F)F)CC1)c1nccc(-n2ccnc2)n1` [Compound 308, 4-(1H-imidazol-1-yl)-N-((1r,4r)-4-(trifluoromethoxy)cyclohexyl)pyrimidine-2-carboxamide]: the values for the IC50 (in experiment [1]; on mouse CD38; at human CD38) were 6270 nM, 94.3 nM and 125 nM, respectively.

With `Cc1cc(C(=O)N[C@H]2CC[C@H](C(F)F)CC2)nc(-c2cncn2C)c1` [Compound 99, N-(4-(difluoromethyl)cyclohexyl)-4-methyl-6-(1-methyl-1H-imidazol-5-yl)picolinamide], the figures for the 50% inhibitory concentration (IC50) (in experiment [1]; at mouse CD38; on human CD38) were 5130 nM, 7 nM and 80 nM, respectively.

Turning to `Cn1cncc1-c1ccnc(C(=O)NC23CC(C(C)(C)O)(C2)C3)n1` [Compound 294, N-(3-(2-hydroxypropan-2-yl)bicyclo[1.1.1]pentan-1-yl)-4-(1-methyl-1H-imidazol-5-yl)pyrimidine-2-carboxamide], the IC50 in experiment [1] worked out at 4480 nM; at mouse CD38 it was 176 nM; at human CD38, 251 nM.

Consider `Cc1ncc(-c2cncn2C)nc1C(=O)Nc1ccc(C(F)(F)F)nc1` [Compound 296, 3-methyl-6-(1-methyl-1H-imidazol-5-yl)-N-(6-(trifluoromethyl)pyridin-3-yl)pyrazine-2-carboxamide], for which the IC50 in experiment [1] was 1140 nM; on mouse CD38 it was 9.9 nM; on human CD38, 8.7 nM.

Turning to `Cn1cncc1-c1nc(C(=O)Nc2ccc(C(F)(F)F)nc2)cc(C2(C)COC2)n1` [Compound 309, 2-(1-methyl-1H-imidazol-5-yl)-6-(3-methyloxetan-3-yl)-N-(6-(trifluoromethyl)pyridin-3-yl)pyrimidine-4-carboxamide], the values for the IC50 (in experiment [1]; on mouse CD38; on human CD38) were 933 nM, 1.3 nM and 4.2 nM, respectively.

As for `Cc1cc(NC(=O)c2cccc(-n3ccnc3)n2)ccn1` [Compound 21, 6-(1H-imidazol-1-yl)-N-(2-methylpyridin-4-yl)picolinamide], the IC50 in experiment [1] is 273 nM; on mouse CD38 it was 3 nM; on human CD38, 3 nM.

For the compound `CO[C@H]1CC[C@H](NC(=O)c2nc(C)cc(-c3cncn3C)n2)CC1` [Compound 191, N-((1r,4r)-4-methoxycyclohexyl)-4-methyl-6-(1-methyl-1H-imidazol-5-yl)pyrimidine-2-carboxamide], the IC50 is 3280 nM in experiment [1], 4.5 nM at mouse CD38 and 35.3 nM on human CD38.

`COCCOc1cc(C(=O)Nc2ccc(C(F)(F)F)nc2)nc(-n2ccnc2)c1` [Compound 245, 6-(1H-imidazol-1-yl)-4-(2-methoxyethoxy)-N-(6-(trifluoromethyl)pyridin-3-yl)picolinamide]: the values for the IC50 (in experiment [1]; on mouse CD38; at human CD38) were 749 nM, 1 nM and 2.8 nM, respectively.

`Cn1cncc1-c1ccnc(C(=O)N[C@H]2C[C@@H](c3ccc(C(F)(F)F)nc3)C2)n1` [Compound 274, 4-(1-methyl-1H-imidazol-5-yl)-N-((1s,3s)-3-(6-(trifluoromethyl)pyridin-3-yl)cyclobutyl)pyrimidine-2-carboxamide]: the IC50 in experiment [1] amounted to 10800 nM; on mouse CD38 it was 185 nM; at human CD38, 404 nM.

Consider `O=C(Nc1ccnc(C(F)(F)F)c1)c1cccc(-n2ccnc2)n1` [Compound 38, 6-(1H-imidazol-1-yl)-N-(2-(trifluoromethyl)pyridin-4-yl)picolinamide], for which the IC50 in experiment [1] was found to be 873 nM; on mouse CD38, 7 nM; at human CD38, 10 nM.

Consider `O=C(Nc1ccc(C(F)(F)F)nc1)c1ccc(F)c(-n2ccnc2)n1` [Compound 53, 5-fluoro-6-(1H-imidazol-1-yl)-N-(6-(trifluoromethyl)pyridin-3-yl)picolinamide], for which the IC50 in experiment [1] amounted to 675 nM; at mouse CD38 it was 10 nM; on human CD38, 10 nM.

In the case of `CC(C)(O)c1cc(C(=O)Nc2ccc(C(F)(F)F)nc2)nc(-n2ccnc2)n1` [Compound 175, 6-(2-hydroxypropan-2-yl)-2-(1H-imidazol-1-yl)-N-(6-(trifluoromethyl)pyridin-3-yl)pyrimidine-4-carboxamide], the IC50 in experiment [1] came to 6460 nM; on mouse CD38, 335 nM; on human CD38, 330 nM.

On to `O=C(Nc1ccc(F)cc1)c1cccc(-n2ccnc2)n1` [Compound 19, N-(4-fluorophenyl)-6-(1H-imidazol-1-yl)picolinamide], for which the IC50 in experiment [1] is 345 nM; on mouse CD38 it was 9 nM; at human CD38, 7 nM.

As to `O=C(Nc1ccc(C(F)(F)F)nc1)c1cc(C2CCOCC2)nc(-n2ccnc2)n1` [Compound 196, 2-(1H-imidazol-1-yl)-6-(tetrahydro-2H-pyran-4-yl)-N-(6-(trifluoromethyl)pyridin-3-yl)pyrimidine-4-carboxamide], the IC50 in experiment [1] amounted to 3190 nM; at mouse CD38, 19.3 nM; at human CD38, 25.4 nM.

As for `O=C(Nc1ccc(F)cc1F)c1cccc(-n2ccnc2)n1` [Compound 24, N-(2,4-difluorophenyl)-6-(1H-imidazol-1-yl)picolinamide], the IC50 in experiment [1] was determined as 1660 nM; on mouse CD38, 45 nM; at human CD38 it was 104 nM.

With `Cn1cncc1-c1nc(C(=O)Nc2ccc(C(F)(F)F)nc2)cc(C2CCC(F)(F)CC2)n1` [Compound 285, 6-(4,4-difluorocyclohexyl)-2-(1-methyl-1H-imidazol-5-yl)-N-(6-(trifluoromethyl)pyridin-3-yl)pyrimidine-4-carboxamide], the figures for the half-maximal inhibitory concentration (IC50) (in experiment [1]; on mouse CD38; at human CD38) were 1240 nM, 1 nM and 8.6 nM, respectively.

As to `CCO[C@H]1CC[C@H](NC(=O)c2nccc(-c3cncn3C)n2)CC1` [Compound 255, N-((1r,4r)-4-ethoxycyclohexyl)-4-(1-methyl-1H-imidazol-5-yl)pyrimidine-2-carboxamide], the IC50 worked out at 2760 nM in experiment [1], 28.7 nM on mouse CD38 and 71.5 nM at human CD38.

On to `COCCO[C@H]1CC[C@H](NC(=O)c2nc(-n3ccnc3)ccc2F)CC1` [Compound 43, 3-fluoro-6-(1H-imidazol-1-yl)-N-(4-(2-methoxyethoxy)cyclohexyl)picolinamide], for which the IC50 in experiment [1] was 7490 nM; on mouse CD38, 32 nM; on human CD38 it was 200 nM.

Regarding `COc1cc(C(=O)Nc2ccc(C(F)F)nc2)nc(-c2cncs2)n1` [Compound 131, N-(6-(difluoromethyl)pyridin-3-yl)-6-methoxy-2-(thiazol-5-yl)pyrimidine-4-carboxamide], the IC50 was determined as 2910 nM in experiment [1], 23 nM at mouse CD38 and 66 nM on human CD38.

Take `COCCO[C@H]1CC[C@H](NC(=O)c2cc(C(F)(F)F)nc(-c3cncn3C)n2)CC1` [Compound 165, N-((1r,4r)-4-(2-methoxyethoxy)cyclohexyl)-2-(1-methyl-1H-imidazol-5-yl)-6-(trifluoromethyl)pyrimidine-4-carboxamide]: the IC50 in experiment [1] amounted to 2980 nM; at mouse CD38 it was 1 nM; on human CD38 it was 19 nM.

In the case of `CC(C)c1cc(C(=O)Nc2ccc(C(F)(F)F)nc2)nc(-n2ccnc2)n1` [Compound 170, 2-(1H-imidazol-1-yl)-6-isopropyl-N-(6-(trifluoromethyl)pyridin-3-yl)pyrimidine-4-carboxamide], the values for the IC50 (in experiment [1]; on mouse CD38; on human CD38) were 4860 nM, 32 nM and 47 nM, respectively.

Consider `COCCO[C@H]1CC[C@H](NC(=O)c2nc(OC)cc(-c3cncn3C)n2)CC1` [Compound 231, 4-methoxy-N-((1r,4r)-4-(2-methoxyethoxy)cyclohexyl)-6-(1-methyl-1H-imidazol-5-yl)pyrimidine-2-carboxamide], for which the results for the IC50 (in experiment [1]; on mouse CD38; at human CD38) were 10200 nM, 9 nM and 72.2 nM, respectively.
